# Read-outs that look alike come from different tables or passages of the source.
# Assays:
# [1] = molecular target: op-kappa (Homo sapiens, UniProt P41145); test: GPCR antagonist screening assay; format: cell-based
# [2] = cynomolgus monkey, in vivo
# [3] = Phase 1 dose-escalation phase: plasma pharmacokinetics; format: in vivo, human; conditions: for Tmax / AUC(0-t) / AUC(0-inf) / Cmax / MRT inf / half-life: human, plasma, oral; for Tmax / AUC(0-t) / AUC(0-inf) / Cmax / MRT inf / half-life / Cssmax / Cssmin / Racc_AUC / Racc_Cmax: mean (SD); for MRT inf: read-out: MRT0-∞; for half-life: read-out: T1/2z (converted)
# Method: Three patients were assigned to each dose level. In the dosing cohort of 30 mg, treatment included a single WX-0593 dose, followed by 7-day PK evaluation period, and subsequent daily oral dosing for continuous 21 days. In other dosing cohorts, WX-0593 was administered orally as a single dose in the 4-day PK run-in period, followed by dosing once per day in continuous 21-day cycles. The DLT observation period was the first cycle of WX-0593 treatment (the single-dose period and 21 days of multiple-dose period).
# In the dose-escalation phase, blood samples were collected at protocol-specified time points after single and multiple dose administration of WX-0593 in all dosing cohorts for assessment of PK parameters.
# Safety analysis was performed in the SS, which was comprised of all patients treated with one dose of WX-0593 and with safety data recorded. Efficacy analysis was performed in the FAS, which was defined as all patients treated with at least one dose of WX-0593. The PK analysis set included all patients treated with at least one dose of WX-0593 and with at least one evaluable PK sample.
# Descriptive statistics were carried out to summarize patients’ baseline characteristics and safety. […] All time-to-event data (PFS, TTP, DOR, and OS) and their corresponding 95% CIs were estimated by Kaplan–Meier methods. PK parameter analyses were done with Phoenix WinNonlin version 8.0. All other statistical analyses were conducted using SAS version 9.4.
# Blood sampling time points for single dose: Blood samples are collected before dosing and 0.5 h, 1 h, 2 h, 3 h, 4 h, 5 h, 6 h, 8 h, 12 h, 24 h, 32 h, 48 h, and 72 h after dosing (after adjustment according to the pharmacokinetic parameters of patients in the first dose arm).
# Blood sampling time points for repeated dosing: Repeated dosing starts 4 days after single dose administration. Blood samples are collected before repeated dosing on Days 7, 14, and 21 before repeated dosing, and within 24h after dosing (0.5 h, 1 h, 2 h, 3 h, 4 h, 5 h, 6 h, 8 h, 12 h, 24 h) for measurement of blood pharmacokinetic parameters.
# The plasma concentration of WX-0593 will be determined using LC-MS.
# [4] = multiple dosing 120 mg (n = 11)
# [5] = multiple dosing 180 mg (n = 13)
# [6] = multiple dosing 240 mg (n = 12)
# Chain of op-kappa (P41145 whole entry): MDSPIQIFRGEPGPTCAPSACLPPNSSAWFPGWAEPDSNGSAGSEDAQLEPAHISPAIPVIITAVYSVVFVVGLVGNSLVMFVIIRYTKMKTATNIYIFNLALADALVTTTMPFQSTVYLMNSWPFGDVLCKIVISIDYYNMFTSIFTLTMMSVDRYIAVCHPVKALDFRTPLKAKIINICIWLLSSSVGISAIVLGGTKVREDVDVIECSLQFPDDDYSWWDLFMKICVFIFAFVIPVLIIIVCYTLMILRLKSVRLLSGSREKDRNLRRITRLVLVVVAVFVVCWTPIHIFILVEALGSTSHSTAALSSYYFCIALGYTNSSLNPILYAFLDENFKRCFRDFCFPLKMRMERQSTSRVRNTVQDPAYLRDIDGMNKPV
smiles,measurement,setting,value
COc1cc(N2CCC3(CCN(C)CC3)CC2)ccc1Nc1ncc(Cl)c(Nc2ccccc2P(C)(C)=O)n1 [WX-0593],IC50,[1],> 10 µM
same,MTD as multiple of the effective dose in nude mice,[2],20 times
same,"free Cavg,ss","[3]; 180 mg, once daily",127 nM
same,Tmax,"[3]; 30 mg, multiple dosing 30 mg (n = 3)",4.33 h
same,AUC(0-t),"[3]; 30 mg, multiple dosing 30 mg (n = 3), read-out: AUC0–24",1150 ng·h/mL
same,Tmax,"[3]; 30 mg, single dose 30 mg (n = 3)",2.32 h
same,AUC(0-t),"[3]; 30 mg, single dose 30 mg (n = 3), read-out: AUC0-t",1310 ng·h/mL
same,Tmax,"[3]; 60 mg, multiple dosing 60 mg (n = 3)",4.01 h
same,AUC(0-t),"[3]; 60 mg, multiple dosing 60 mg (n = 3), read-out: AUC0–24",4960 ng·h/mL
same,Tmax,"[3]; 60 mg, single dose 60 mg (n = 3)",1.33 h
same,AUC(0-t),"[3]; 60 mg, single dose 60 mg (n = 3), read-out: AUC0-t",3650 ng·h/mL
same,Tmax,"[3]; 90 mg, multiple dosing 90 mg (n = 8)",2.87 h
same,AUC(0-t),"[3]; 90 mg, multiple dosing 90 mg (n = 8), read-out: AUC0–24",4390 ng·h/mL
same,Tmax,"[3]; 90 mg, single dose 90 mg (n = 8)",1.69 h
same,AUC(0-t),"[3]; 90 mg, single dose 90 mg (n = 8), read-out: AUC0-t",5430 ng·h/mL
same,Tmax,"[3]; 120 mg, multiple dosing 120 mg (n = 11)",2.79 h
same,AUC(0-t),"[3]; 120 mg, multiple dosing 120 mg (n = 11), read-out: AUC0–24",6120 ng·h/mL
same,Tmax,"[3]; 120 mg, single dose 120 mg (n = 11)",1.81 h
same,AUC(0-t),"[3]; 120 mg, single dose 120 mg (n = 11), read-out: AUC0-t",7780 ng·h/mL
same,Tmax,"[3]; 180 mg, multiple dosing 180 mg (n = 13)",2.79 h
same,AUC(0-t),"[3]; 180 mg, multiple dosing 180 mg (n = 13), read-out: AUC0–24",7210 ng·h/mL
same,Tmax,"[3]; 180 mg, single dose 180 mg (n = 12)",2.29 h
same,AUC(0-t),"[3]; 180 mg, single dose 180 mg (n = 12), read-out: AUC0-t",6620 ng·h/mL
same,Tmax,"[3]; 240 mg, multiple dosing 240 mg (n = 12)",3.27 h
same,AUC(0-t),"[3]; 240 mg, multiple dosing 240 mg (n = 12), read-out: AUC0–24",12700 ng·h/mL
same,Tmax,"[3]; 240 mg, single dose 240 mg (n = 10)",2.5 h
same,AUC(0-t),"[3]; 240 mg, single dose 240 mg (n = 10), read-out: AUC0-t",15500 ng·h/mL
same,Tmax,"[3]; 300 mg, multiple dosing 300 mg (n = 2)",1.24 h
same,AUC(0-t),"[3]; 300 mg, multiple dosing 300 mg (n = 2), read-out: AUC0–24",23400 ng·h/mL
same,Tmax,"[3]; 300 mg, single dose 300 mg (n = 3)",2.71 h
same,AUC(0-t),"[3]; 300 mg, single dose 300 mg (n = 3), read-out: AUC0-t",14900 ng·h/mL
same,AUC(0-inf),[3]; single dose 30 mg (n = 3),1710 ng·h/mL
same,Cmax,[3]; single dose 30 mg (n = 3),105 ng/mL
same,MRT inf,[3]; single dose 30 mg (n = 3),20.7 h
same,half-life,[3]; single dose 30 mg (n = 3),15.5 h
same,AUC(0-inf),[3]; single dose 60 mg (n = 3),4060 ng·h/mL
same,Cmax,[3]; single dose 60 mg (n = 3),305 ng/mL
same,MRT inf,[3]; single dose 60 mg (n = 3),28.3 h
same,half-life,[3]; single dose 60 mg (n = 3),25.7 h
same,AUC(0-inf),[3]; single dose 90 mg (n = 8),6210 ng·h/mL
same,Cmax,[3]; single dose 90 mg (n = 8),474 ng/mL
same,MRT inf,[3]; single dose 90 mg (n = 8),24 h
same,half-life,[3]; single dose 90 mg (n = 8),21.9 h
same,AUC(0-inf),[3]; single dose 120 mg (n = 11),8120 ng·h/mL
same,Cmax,[3]; single dose 120 mg (n = 11),571 ng/mL
same,MRT inf,[3]; single dose 120 mg (n = 11),25.6 h
same,half-life,[3]; single dose 120 mg (n = 11),22.2 h
same,AUC(0-inf),[3]; single dose 180 mg (n = 12),7320 ng·h/mL
same,Cmax,[3]; single dose 180 mg (n = 12),401 ng/mL
same,MRT inf,[3]; single dose 180 mg (n = 12),27.9 h
same,half-life,[3]; single dose 180 mg (n = 12),23.9 h
same,AUC(0-inf),[3]; single dose 240 mg (n = 10),16900 ng·h/mL
same,Cmax,[3]; single dose 240 mg (n = 10),1000 ng/mL
same,MRT inf,[3]; single dose 240 mg (n = 10),25 h
same,half-life,[3]; single dose 240 mg (n = 10),22.9 h
same,AUC(0-inf),[3]; single dose 300 mg (n = 3),17100 ng·h/mL
same,Cmax,[3]; single dose 300 mg (n = 3),905 ng/mL
same,MRT inf,[3]; single dose 300 mg (n = 3),32.4 h
same,half-life,[3]; single dose 300 mg (n = 3),27.5 h
same,Cssmax,[3]; multiple dosing 30 mg (n = 3),95.13 (54.02) ng/mL
same,Cssmin,[3]; multiple dosing 30 mg (n = 3),25.00 (8.04) ng/mL
same,Racc_AUC,[3]; multiple dosing 30 mg (n = 3),116.256 (32.91) %
same,Racc_Cmax,[3]; multiple dosing 30 mg (n = 3),89.141 (35.00) %
same,Cssmax,[3]; multiple dosing 60 mg (n = 3),419.00 (128.24) ng/mL
same,Cssmin,[3]; multiple dosing 60 mg (n = 3),117.87 (59.10) ng/mL
same,Racc_AUC,[3]; multiple dosing 60 mg (n = 3),203.993 (32.03) %
same,Racc_Cmax,[3]; multiple dosing 60 mg (n = 3),150.689 (39.79) %
same,Cssmax,[3]; multiple dosing 90 mg (n = 8),324.38 (109.58) ng/mL
same,Cssmin,[3]; multiple dosing 90 mg (n = 8),103.65 (29.27) ng/mL
same,Racc_AUC,[3]; multiple dosing 90 mg (n = 8),149.978 (88.53) %
same,Racc_Cmax,[3]; multiple dosing 90 mg (n = 8),117.082 (97.12) %
same,Cssmax,[3]; [4],479.20 (151.70) ng/mL
same,Cssmin,[3]; [4],139.24 (34.22) ng/mL
same,Racc_AUC,[3]; [4],130.809 (36.42) %
same,Racc_Cmax,[3]; [4],111.519 (44.39) %
same,Cssmax,[3]; [5],529.38 (203.22) ng/mL
same,Cssmin,[3]; [5],164.10 (77.76) ng/mL
same,Racc_AUC,[3]; [5],174.265 (35.49) %
same,Racc_Cmax,[3]; [5],138.238 (26.54) %
same,Cssmax,[3]; [6],960.50 (234.47) ng/mL
same,Cssmin,[3]; [6],236.00 (56.80) ng/mL
same,Racc_AUC,[3]; [6],160.210 (77.95) %
same,Racc_Cmax,[3]; [6],127.749 (58.74) %
same,Cssmax,[3]; multiple dosing 300 mg (n = 2),1685.00 (657.61) ng/mL
same,Cssmin,[3]; multiple dosing 300 mg (n = 2),623.50 (402.34) ng/mL
same,Racc_AUC,[3]; multiple dosing 300 mg (n = 2),309.507 (151.00) %
same,Racc_Cmax,[3]; multiple dosing 300 mg (n = 2),223.005 (88.95) %
same,dose proportionality of exposure,"[3]; once-daily 30 to 300 mg, AUC0–24",increased in an approximately dose-proportion manner

# — article PMC8795197, “Safety and activity of WX-0593 (Iruplinalkib) in patients with ALK- or ROS1-rearranged advanced non-small cell lung cancer: a phase 1 dose-escalation and dose-expansion trial” (Signal Transduction and Targeted Therapy, 2022)
